{"source": "paper PMC4339887", "about": "“Selective Sirt2 inhibition by ligand-induced rearrangement of the active site” (Nature Communications, 2015)", "key": {"human Sirt6": {"molecular_target": "T1, human Sirt6 (Homo sapiens, UniProt Q8N6T7)", "T1 construct": "human Sirt6_13–308 (Uniprot: Q8N6T7); made in house", "T1 sequence (Q8N6T7 13-308)": "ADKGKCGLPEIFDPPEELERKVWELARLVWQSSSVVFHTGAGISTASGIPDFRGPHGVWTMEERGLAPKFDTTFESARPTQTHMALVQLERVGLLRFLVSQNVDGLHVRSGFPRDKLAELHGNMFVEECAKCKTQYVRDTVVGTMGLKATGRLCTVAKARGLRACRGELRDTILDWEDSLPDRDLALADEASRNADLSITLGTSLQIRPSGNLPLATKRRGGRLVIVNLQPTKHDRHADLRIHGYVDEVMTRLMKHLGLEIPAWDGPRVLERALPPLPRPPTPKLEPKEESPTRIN", "test": "HPLC-based assay, non-labelled myristoyl-lysine peptide", "type": "biochemical", "details": "myristoyl-lysine substrate"}, "Human Sirt2_56–356": {"molecular_target": "T2, Human Sirt2_56–356 (Homo sapiens, UniProt Q8IXJ6)", "T2 construct": "Human Sirt2_56–356 (0.2 mg ml^−1 final concentration); His10 (N, cleaved yes); made in house; host or cells: E. coli BL21(DE3)Codonplus RIPL", "T2 sequence (Q8IXJ6 56-356)": "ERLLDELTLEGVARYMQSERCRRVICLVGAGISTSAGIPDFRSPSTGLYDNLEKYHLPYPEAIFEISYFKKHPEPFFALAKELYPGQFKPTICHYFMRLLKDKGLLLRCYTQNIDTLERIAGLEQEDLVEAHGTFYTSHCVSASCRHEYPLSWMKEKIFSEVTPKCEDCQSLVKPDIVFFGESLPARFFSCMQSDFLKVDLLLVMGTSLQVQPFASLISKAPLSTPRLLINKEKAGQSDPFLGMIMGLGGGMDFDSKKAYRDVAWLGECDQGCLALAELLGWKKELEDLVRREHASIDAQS", "test": "competition analyses / inhibition kinetics, α-tubulin peptide, HPLC", "type": "biochemical", "details": "NAD+ competition analysis", "text": "The peak areas were integrated and converted to initial velocities calculated from the peak areas as the fraction of deacetylated peptide from total peptide."}, "KDAC1": {"molecular_target": "T3, KDAC1 (Homo sapiens, UniProt Q13547)", "T3 construct": "purchased Enzo Life Sciences", "T3 sequence (Q13547 whole entry)": "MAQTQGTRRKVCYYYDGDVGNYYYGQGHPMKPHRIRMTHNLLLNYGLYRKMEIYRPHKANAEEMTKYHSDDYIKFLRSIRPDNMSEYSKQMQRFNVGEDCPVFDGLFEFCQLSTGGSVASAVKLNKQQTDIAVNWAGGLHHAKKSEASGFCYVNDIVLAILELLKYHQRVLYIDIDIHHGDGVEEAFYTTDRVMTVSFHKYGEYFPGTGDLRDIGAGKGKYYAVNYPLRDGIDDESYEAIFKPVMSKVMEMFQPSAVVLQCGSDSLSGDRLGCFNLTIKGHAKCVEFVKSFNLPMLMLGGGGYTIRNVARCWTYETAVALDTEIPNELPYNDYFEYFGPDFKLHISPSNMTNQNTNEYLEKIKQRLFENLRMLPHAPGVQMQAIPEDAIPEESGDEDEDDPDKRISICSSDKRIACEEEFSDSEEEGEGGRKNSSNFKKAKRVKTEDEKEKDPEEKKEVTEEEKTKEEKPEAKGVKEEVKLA", "test": "in vitro KDAC1/6 assay, substrate ZMAL", "type": "biochemical", "experimental": "(§1) 5 times), Fmoc deprotection and amino acid coupling were repeated until the last amino acid was coupled and the Fmoc group was removed. The resin was washed with dichloromethane (DCM, 3 min, 5 times), methanol (5 min, 3 times) and DCM (3 min, 5 times). […]\n(§2) acid (TFA) at RT (1 h, 2 times). Cleaved peptide was precipitated with cold diethylether, filtrated and dried. The peptide was purified by semi-preparative HPLC (Merck-Hitachi High Speed LC system) using a Merck Hibar LiChrosorb RP-8 column (250–25 mm, 7 μm). For separation a linear gradient from 20–50% (vol/vol) acetonitrile (ACN) with 0.1% (vol/vol) TFA in 60 min was applied (flow-rate: 8 ml min-1). […]\n(§3) high-throughput fluorescence-based assay using the substrate ZMAL (Z-Lys(Acetyl)- […]\n(§4) A solution that contained DMSO was used a negative\n(§5) The reaction was started through the addition of KDAC1 (Enzo Life Sciences, 10 μL) or […]\n(§6) initial state conditions the substrate conversion was adjusted to 10–30% prior to inhibition tests. The reaction was stopped by the addition of a solution containing trypsin and TSA […]\n(§7) Then fluorescence intensity of the released fluorophore of the deacetylated lysine derivative was measured in a microplate […]\n(§8) reader (BMG Polarstar, Oex 390 nm, Oem 460 nm). The amount of inhibition was determined with respect to the mixture with only DMSO.\n(§9) Immunocytochemistry equipment and settings. […]"}, "KDAC6": {"molecular_target": "T4, KDAC6 (Homo sapiens, UniProt Q9UBN7)", "T4 construct": "purchased Enzo Life Sciences", "T4 sequence (Q9UBN7 1-1215)": "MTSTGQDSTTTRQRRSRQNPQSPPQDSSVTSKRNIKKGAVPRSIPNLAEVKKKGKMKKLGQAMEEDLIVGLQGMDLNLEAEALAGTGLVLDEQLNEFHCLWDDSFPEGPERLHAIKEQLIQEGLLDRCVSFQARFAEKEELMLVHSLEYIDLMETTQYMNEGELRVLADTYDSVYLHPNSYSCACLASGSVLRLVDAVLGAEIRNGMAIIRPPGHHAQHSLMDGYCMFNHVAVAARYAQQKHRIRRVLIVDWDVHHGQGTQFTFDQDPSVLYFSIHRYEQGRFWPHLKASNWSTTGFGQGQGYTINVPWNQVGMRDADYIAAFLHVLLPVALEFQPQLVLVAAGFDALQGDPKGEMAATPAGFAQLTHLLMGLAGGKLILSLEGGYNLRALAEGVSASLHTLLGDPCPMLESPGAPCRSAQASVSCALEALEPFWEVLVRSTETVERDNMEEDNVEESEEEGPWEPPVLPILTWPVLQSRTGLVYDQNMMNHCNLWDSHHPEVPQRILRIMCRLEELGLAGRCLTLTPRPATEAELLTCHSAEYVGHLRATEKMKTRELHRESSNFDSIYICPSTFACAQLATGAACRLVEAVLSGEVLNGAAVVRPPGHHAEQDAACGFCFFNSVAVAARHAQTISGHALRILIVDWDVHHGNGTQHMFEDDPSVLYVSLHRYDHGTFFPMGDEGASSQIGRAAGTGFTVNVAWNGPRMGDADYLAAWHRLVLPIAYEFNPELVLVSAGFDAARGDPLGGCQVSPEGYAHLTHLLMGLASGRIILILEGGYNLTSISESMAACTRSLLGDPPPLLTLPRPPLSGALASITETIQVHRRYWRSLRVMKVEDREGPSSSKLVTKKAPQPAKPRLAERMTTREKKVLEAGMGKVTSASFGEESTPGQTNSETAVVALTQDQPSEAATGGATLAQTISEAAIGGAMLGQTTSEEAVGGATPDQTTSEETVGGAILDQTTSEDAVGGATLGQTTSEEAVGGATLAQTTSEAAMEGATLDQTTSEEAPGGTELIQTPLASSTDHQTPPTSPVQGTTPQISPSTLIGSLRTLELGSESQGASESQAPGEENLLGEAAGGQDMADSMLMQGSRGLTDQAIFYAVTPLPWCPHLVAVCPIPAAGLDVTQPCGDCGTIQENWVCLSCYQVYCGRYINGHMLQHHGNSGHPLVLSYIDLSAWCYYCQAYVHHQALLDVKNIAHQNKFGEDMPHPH", "test": "in vitro KDAC1/6 assay, substrate ZMAL", "type": "biochemical", "experimental": "as §1, §2, §3, §4, §5, §6, §7, §8, §9"}, "human Sirt2": {"molecular_target": "T5, human Sirt2 (Homo sapiens, UniProt Q8IXJ6)", "T5 sequence (Q8IXJ6 25-389)": "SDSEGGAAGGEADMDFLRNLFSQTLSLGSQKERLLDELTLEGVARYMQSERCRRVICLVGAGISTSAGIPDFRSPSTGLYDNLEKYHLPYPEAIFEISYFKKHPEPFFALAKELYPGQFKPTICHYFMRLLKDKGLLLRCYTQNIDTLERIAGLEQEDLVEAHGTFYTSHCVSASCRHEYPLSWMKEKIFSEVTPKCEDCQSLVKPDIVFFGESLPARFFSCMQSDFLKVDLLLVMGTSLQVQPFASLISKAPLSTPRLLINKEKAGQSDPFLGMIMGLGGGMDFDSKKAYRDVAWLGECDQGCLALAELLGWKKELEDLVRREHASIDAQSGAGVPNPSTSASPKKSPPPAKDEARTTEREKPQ", "test": "HPLC-based conversion assay, non-labelled acetyl-lysine α-tubulin peptide", "details": "SirReal2 100 μM, non-labelled acetyl-lysine oligopeptide"}}, "note": "“Also recorded” adds a separate entry of the source.", "data": [{"molecule": "Cc1cc(C)nc(SCC(=O)Nc2ncc(Cc3cccc4ccccc34)s2)n1", "note": "[SirReal2]", "values": [{"measurement": "inhibition at 200 µM", "setting": "human Sirt6", "result": 19, "unit": "%"}, {"measurement": "mode of inhibition towards NAD+", "setting": "Human Sirt2_56–356", "result": "partially non-competitive"}, {"measurement": "activity of KDAC1", "setting": "KDAC1", "result": "does not affect"}, {"measurement": "activity of KDAC6", "setting": "KDAC6", "result": "does not affect; also recorded: not affected"}, {"measurement": "activity of Sirt2", "setting": "human Sirt2", "result": "substantially reduced"}]}]}
